Test results published in patent US20020039567A1, “Methods of treating bone or cartilage conditions by the administration of creatine” (priority 1998, published 2002).

Columns and labels:
[1] = system: embryonic rat femora; test: Embryonic rat femora wet weight in organ culture
Procedure: The rats were sacrificed on the 17th to 18th day of pregnancy. The embryos were aseptically removed from the uterus, and both femora were carefully dissected free into sterile TBSS under the stereo-microscope. Organ-culture of the rudiments was performed in 10 cm^2 plastic culture dishes. A Teflon carrier with a nylon mesh (20 μm pore size) was mounted in the dish, keeping the explants floating and ensuring optimal gas exchange and nutritional conditions. The right and the left femora from each animal were randomly assigned to the experimental or control group. The control groups were kept in 3 ml B with 50 μg/ml ascorbate. In the experimental group, the growth medium was supplemented with either 10 mM creatine, 20 mM creatine, 1 mM GPA, 5 mM GPA, or 10 mM GPA. The growth medium was renewed every second day until day 10. Culture was carried out at 37.5° C. and in a 5% CO2 atmosphere. At 10 days, the wet weight of each femora was determined on a microbalance. The result of each experimental femora was expressed relative to its collateral control. For the histological evaluation, the femora as fixed in 4% formaldehyde, dehydrated, and embedded in methylmethacrylate. The 6 μm sections were stained by Pentachrome-Movat.

[2] = system: epiphyseal growth plate; conditions: feeding rats with GPA; cited from earlier work
[3] = system: cultured chondrocytes; conditions: cited from earlier work
[4] = system: osteoblasts (micromass culture); test: Cell viability (neutral red uptake), micromass osteoblast cell culture; type: cell-based, rat; conditions: 20 mM creatine; 3 weeks; vs control (p<0.005) and 10 mM creatine (p<0.003)
Procedure: This isolation technique is based on the ability of osteoblasts to migrate from bone onto a substratum. Parietal and frontal calvariae (4 per animal) were aseptically explanted from 6 day-old IcoIbm rats. The calvariae were placed in Tyrode's balanced salt solution, calcium and magnesium free (TESS). The periosteum was enzymatically removed with 0.05% trypsin and 0.02% collagenase A (0.76 U/mg) dissolved in TBSS (40 calvaria/20 ml). The calvariae were shaken for 70 minutes in a waterbath at 37° C. They were washed with TESS and then transferred to 60 mm culture dishes (40 calvariae/dish) containing 5 ml of 0.02% collagenase A (0.76 U/mg) in culture medium BGJb Fitton-Jackson modification and placed in the incubator for 4 hours. The calvariae were then washed with culture medium B supplemented with 10% foetal calf serum (FCS). The calvariae were transferred into 60 mm culture dishes (4 frontal and 4 parietal/dish). The growth medium supplemented with 10% FCS and 50 μg/ml ascorbate was completely changed every 48 hours. The culture was kept for 3 weeks. […] The viability of the resuspended cells was examined by the dye exclusion of 0.4% trypan blue, and the cells were counted in a haeinocytometer. […] The absorbance of the supernatant (3 aliquots/dish) was read at 540 nm versus extraction buffer. […] If the absorbance was higher than 1, the samples were diluted with extraction buffer.

Row | Structure (SMILES) | wet weight of femora (FIG. 5) ([1]; 1 mM GPA vs control) | wet weight of femora (FIG. 5) ([1]; 5 mM GPA vs control, p<0.0005) | wet weight of femora (FIG. 5) ([1]; 10 mM GPA vs control, p<0.015) | epiphyseal growth plate morphology [2] | synthesis of pro-a type II and type X collagen [3] | wet weight of femora (FIG. 5) ([1]; 10 mM creatine vs control, p<0.0005) | wet weight of femora (FIG. 5) ([1]; 20 mM creatine vs control, p<0.001) | NR uptake [4]
1 | N=C(N)NCCC(=O)O [GPA, beta-guanidinopropionic acid] | not significantly different from the control | control (FIG. 5) had significantly lower wet weights than | control (FIG. 5) had significantly lower wet weights than | marked abnormalities | interferes with the synthesis | – | – | –
2 | CN(CC(=O)O)C(=N)N [creatine] | – | – | – | – | – | control (FIG. 5) had significantly lower wet weights than | control (FIG. 5) had significantly lower wet weights than | significantly lower NR uptake
